Laboratory results taken from patent publication US20240109893A1, “PREPARATION AND APPLICATION METHOD OF HETEROCYCLIC COMPOUNDS AS KRAS INHIBITOR” (SHANGHAI KECHOW PHARMA, INC., priority 2020, published 2024).

Tested on: H358 cells
Assay: Cell activity experiment: activity test of H358 cells (MTT, 5 days)
Type: cell-based
Settings: Homo sapiens, NCI-H358, 120 h, 5 days incubation, absorbance 492 nm
Protocol: Example: Cell Activity Experiment
1. Cells: H358 purchased from Shanghai EK-Bioscience Biotechnology Co., Ltd.
2. Reagents: RPMI 1640 medium, Tryple, MTT (5 mg/mL), DMSO, and DPBS.
3. Instruments: an incubator at 37° C. and 5% CO2, a UTRAO microplate reader, a biosafety cabinet, a cell counting plate, and an Optec optical microscope.
4. Experimental consumables: 96-well plate Item No.: 3599, and 96-well round-bottomed dispensing plate.
Experimental Steps of Activity Test of H358 Cells:
1. Plating: Cells in the logarithmic growth phase were digested with Tryple and terminated with a fresh medium, and the cells were counted; and the cell concentration was adjusted to 55555 cells/mL with a fresh medium, wherein 90 μL was added to each well, and those on edges were filled with sterile DPBS.
2. The plate was incubated in the incubator at 37° C. and 5% CO2 for 24 h, so that the cells cover the bottom of the well by about 50%.
3. Drug preparation for experimental group: The drug was dissolved in DMSO to prepare a 20 mmol/L stock solution; the stock solution was further diluted with DMSO to 2 mmol/L, which was serially 3-fold diluted to form an […]-concentration gradient, resulting in a 200× serial compound solution; 10 μL of the serial compound solution was taken and added to 190 μLμL of RPMI1640 medium to obtain a 10× serial compound solution; and 10 μL of the 10× compound solution was taken and added to 90 μL 96-well cell culture plate, with three replicates per grade. The concentration gradient of the compound in the 96-well cell culture plate was […], 1.524158 nM, 4.572474 nM, 13.717420 nM, 41.152260 nM, 123.456800 nM, 370.370400 nM, 1111.111000 nM, 3333.333000 nM, and 10000.000000 nM, with 100 μL per well, and the final concentration of DMSO was 0.5%.
The control group contained the same volume of solvent as the experimental group and was diluted with a complete medium, with 100 μL per well.
4. Incubation was carried out for 5 days in an incubator with 5% CO2 at 37° C.
5. After 5 days, 10 μL of an MTT solution (5 mg/mL) was added to each well, and the culture was continued for 4 h.
6. The culture was terminated, and the culture solution was carefully sucked out of the well.
7. 150 μL of dimethyl sulfoxide (DMSO) was added to each of the null wells in the experimental group and the control group; and after shaking at a medium speed for 10 s, the crystal was fully dissolved, and the optical absorbance value thereof was measured at a wavelength of 492 nm.

IC50 | Structure (SMILES)
40 nM | C=C(F)C(=O)N1CC[C@@H]2[C@H]1CN2c1nc(OC[C@@H]2CCCN2C)nc2c(F)c(-c3ccc(F)c4c3CCCC4)ncc12 [Example 26]
15 nM | C=CC(=O)N1CC[C@@H]2[C@H]1CN2c1nc(OC[C@@H]2C[C@@H](F)CN2C)nc2c(F)c(-c3ccc(F)c4c3CCCC4)ncc12 [Example 27]
80 nM | C=C(F)C(=O)N1CC[C@@H]2[C@H]1CN2c1nc(OC[C@@H]2C[C@@H](F)CN2C)nc2c(F)c(-c3ccc(F)c4c3CCCC4)ncc12 [Example 28]
10 nM | C=CC(=O)N1CC[C@@H]2[C@H]1CN2c1nc(OCC23CCCN2CCC3)nc2c(F)c(-c3ccc(F)c4c3CCCC4)ncc12 [Example 29]
60 nM | C=C(F)C(=O)N1CC[C@@H]2[C@H]1CN2c1nc(OCC23CCCN2CCC3)nc2c(F)c(-c3ccc(F)c4c3CCCC4)ncc12 [Example 30]
8 nM | C=CC(=O)N1CC[C@@H]2[C@H]1CN2c1nc(OC[C@@]23CCCN2C[C@H](F)C3)nc2c(F)c(-c3ccc(F)c4c3CCCC4)ncc12 [Example 31]
35 nM | C=C(F)C(=O)N1CC[C@@H]2[C@H]1CN2c1nc(OC[C@@]23CCCN2C[C@H](F)C3)nc2c(F)c(-c3ccc(F)c4c3CCCC4)ncc12 [Example 32]
25 nM | C=CC(=O)N1CCN(c2nc(OC[C@@H]3CCCN3C)nc3c(F)c(-c4cncc5c4CCCC5)ncc23)C[C@@H]1CC#N [Example 33, 2-((S)-1-acryloyl-4-(8-fluoro-2-(((S)-1-methylpyrrolidin-2-yl)methoxy)-7-(5,6,7,8-tetrahydroisoquinoline-4-yl)pyridino[4,3-d]pyrimidin-4-yl)piperazin-2-yl)acetonitrile]
80 nM | C=C(F)C(=O)N1CCN(c2nc(OC[C@@H]3CCCN3C)nc3c(F)c(-c4cncc5c4CCCC5)ncc23)C[C@@H]1CC#N [Example 34, 2-((S)-4-(8-fluoro-2-(((S)-1-methylpyrrolidin-2-yl)methoxy)-7-(5,6,7,8-tetrahydroisoquinolin-4-yl)pyridino[4,3-d]pyrimidin-4-yl)-1-(2-fluoroacryloyl)piperazin-2-yl)acetonitrile]
15 nM | C=CC(=O)N1CCN(c2nc(OC[C@@H]3C[C@@H](F)CN3C)nc3c(F)c(-c4cncc5c4CCCC5)ncc23)C[C@@H]1CC#N [Example 35]
120 nM | C=C(F)C(=O)N1CCN(c2nc(OC[C@@H]3C[C@@H](F)CN3C)nc3c(F)c(-c4cncc5c4CCCC5)ncc23)C[C@@H]1CC#N [Example 36]
15 nM | C=CC(=O)N1CCN(c2nc(OCC34CCCN3CCC4)nc3c(F)c(-c4cncc5c4CCCC5)ncc23)C[C@@H]1CC#N [Example 37, (S)-2-(1-acryloyl-4-(8-fluoro-2-((tetrahydro-1H-pyrrolizin-7a(5H)-yl)methoxy)-7-(5,6,7,8-tetrahydroisoquinolin-4-yl)pyridino[4,3-d]pyrimidin-4-yl)piperazin-2-yl)acetonitrile]
36 nM | C=C(F)C(=O)N1CCN(c2nc(OCC34CCCN3CCC4)nc3c(F)c(-c4cncc5c4CCCC5)ncc23)C[C@@H]1CC#N [Example 38, (S)-2-(4-(8-fluoro-2-((tetrahydro-1H-pyrrolizin-7a(5H)-yl)methoxy)-7-(5,6,7,8-tetrahydroisoquinolin-4-yl)pyridino[4,3-d]pyrimidin-4-yl)-1-(2-fluoroacryloyl)piperazin-2-yl)acetonitrile]
8 nM | C=CC(=O)N1CCN(c2nc(OC[C@@]34CCCN3C[C@H](F)C4)nc3c(F)c(-c4cncc5c4CCCC5)ncc23)C[C@@H]1CC#N [Example 39]
30 nM | C=C(F)C(=O)N1CCN(c2nc(OC[C@@]34CCCN3C[C@H](F)C4)nc3c(F)c(-c4cncc5c4CCCC5)ncc23)C[C@@H]1CC#N [Example 40]
15 nM | C=CC(=O)N1CC[C@@H]2[C@H]1CN2c1nc(OC[C@@H]2CCCN2C)nc2c(F)c(-c3cncc4c3CCCC4)ncc12 [Example 41]
35 nM | C=C(F)C(=O)N1CC[C@@H]2[C@H]1CN2c1nc(OC[C@@H]2CCCN2C)nc2c(F)c(-c3cncc4c3CCCC4)ncc12 [Example 42, 2-fluoro-1-(((1R,5R)-6-(8-fluoro-2-(((S)-1-methylpyrrolidin-2-yl)methoxy)-7]-(5,6,7,8-tetrahydroisoquinolin-4-yl)pyridino[4,3-d]pyrimidin-4-yl)-2,6-diazabicyclo[3.2.0]hept-2-yl)prop-2-en-1-one]
16 nM | C=CC(=O)N1CC[C@@H]2[C@H]1CN2c1nc(OC[C@@H]2C[C@@H](F)CN2C)nc2c(F)c(-c3cncc4c3CCCC4)ncc12 [Example 43]
64 nM | C=C(F)C(=O)N1CC[C@@H]2[C@H]1CN2c1nc(OC[C@@H]2C[C@@H](F)CN2C)nc2c(F)c(-c3cncc4c3CCCC4)ncc12 [Example 44]
10 nM | C=CC(=O)N1CC[C@@H]2[C@H]1CN2c1nc(OCC23CCCN2CCC3)nc2c(F)c(-c3cncc4c3CCCC4)ncc12 [Example 45, 1-((1R,5R)-6-(8-fluoro-2-((tetrahydro-1H-pyrrolizin-7a(5H)-yl)methoxy)-7-(5,6,7,8-tetrahydroisoquinoline-4-yl)pyridino[4,3-d]pyrimidin-4-yl)-2,6-diazabicyclo[3.2.0]hept-2-yl)prop-2-en-1-one]
30 nM | C=C(F)C(=O)N1CC[C@@H]2[C@H]1CN2c1nc(OCC23CCCN2CCC3)nc2c(F)c(-c3cncc4c3CCCC4)ncc12 [Example 46, 2-fluoro-1-(((1R,5R)-6-(8-fluoro-2-((tetrahydro-1H-pyrrolizin-7a(5H)-yl)methoxy))-7-(5,6,7,8-tetrahydroisoquinolin-4-yl)pyridino[4,3-d]pyrimidin-4-yl)-2,6-diazabicyclo[3.2.0]hept-2-yl)prop-2-en-1-one]
6.5 nM | C=CC(=O)N1CC[C@@H]2[C@H]1CN2c1nc(OC[C@@]23CCCN2C[C@H](F)C3)nc2c(F)c(-c3cncc4c3CCCC4)ncc12 [Example 47]
20 nM | C=C(F)C(=O)N1CC[C@@H]2[C@H]1CN2c1nc(OC[C@@]23CCCN2C[C@H](F)C3)nc2c(F)c(-c3cncc4c3CCCC4)ncc12 [Example 48]
57 nM | C=CC(=O)N1CCN(c2nc(OC[C@@H]3CCCN3C)nc3c(F)c(-c4cccc5c4SCCC5)ncc23)C[C@@H]1CC#N [Example 49, 2-((S)-1-acryloyl-4-(8-fluoro-2-(((S)-1-methylpyrrolidin-2-yl)methoxy)-7-(thiochroman-8-yl)pyridino[4,3-d]pyrimidin-4-yl)piperazin-2-yl)acetonitrile]
140 nM | C=CC(=O)N1CCN(c2nc(OC[C@@H]3CCCN3C)nc3c(F)c(-c4cccc5c4CCOC5)ncc23)C[C@@H]1CC#N [Example 50, 2-((S)-1-acryloyl-4-(8-fluoro-7-(isochroman-5-yl)-2-(((S)-1-methylpyrrolidin-2-yl)methoxy)pyridino[4,3-d]pyrimidin-4-yl)piperazin-2-yl)acetonitrile]
148 nM | C=CC(=O)N1CCN(c2nc(OC[C@@H]3CCCN3C)nc3c(F)c(-c4cccc5ccsc45)ncc23)C[C@@H]1CC#N [Example 51, 2-((S)-1-acryloyl-4-(7-(benzo[b]thien-7-yl)-8-fluoro-2-(((S)-1-methylpyrrolidin-2-yl)methoxy)pyridino[4,3-d]pyrimidin-4-yl)piperazin-2-yl)acetonitrile]
0.22 nM | C=CC(=O)N1CCN(c2nc(OC[C@@H]3CCCN3C)nc3c(F)c(-c4cccc5c4C4CC4C5)ncc23)C[C@@H]1CC#N (stereo partly drawn) [Example 52, 2-((2S)-1-acryloyl-4-(8-fluoro-2-(((S)-1-methylpyrrolidin-2-yl)methoxy)-7-(1,1a,6,6a-tetrahydrocyclopropa[a]inden-2-yl)pyridino[4,3-d]pyrimidin-4-yl)piperazin-2-yl)acetonitrile]
180 nM | C=C(F)C(=O)N1CCN(c2nc(OC[C@@H]3CCCN3C)nc3c(F)c(-c4cccc5c4SCCC5)ncc23)C[C@@H]1CC#N [Example 53, 2-((S)-4-(8-fluoro-2-(((S)-1-methylpyrrolidin-2-yl)methoxy)-7-(thiochroman-8-yl)pyridino[4,3-d]pyrimidin-4-yl)-1-(2-fluoroacryloyl)piperazin-2-yl)acetonitrile]
70 nM | C=CC(=O)N1CCN(c2nc(OC[C@@H]3CCCN3C)nc3c(F)c(-c4ccc(F)c5c4SCCC5)ncc23)C[C@@H]1CC#N [Example 54, 2-((S)-1-acryloyl-4-(8-fluoro-7-(5-fluorothiochroman-8-yl)-2-(((S)-1-methylpyrrolidin-2-yl)methoxy)pyridino[4,3-d]pyrimidin-4-yl)piperazin-2-yl)acetonitrile]
